Values quoted from earlier work, collected in paper PMC12005229, “Final results from the phase Ia/Ib study of the novel bromodomain and extra-terminal domain inhibitor, BI 894999, in patients with advanced solid tumors or diffuse large B-cell lymphoma” (ESMO Open, 2025).

Tests used:
[1] = system: patients with relapsed/refractory DLBCL; set-up: method as in PMID 34581757; details: in combination with venetoclax and rituximab, 39 patients with relapsed/refractory DLBCL; cited from earlier work
[2] = system: patients with relapsed/refractory acute myeloid leukemia; set-up: method as in PMID 33934351; details: 44 patients with relapsed/refractory acute myeloid leukemia; cited from earlier work

Row | SMILES | complete responses [1] [%] | overall response rate [1] [%] | efficacy of combination with venetoclax compared with monotherapy [2]
1 | Cc1sc2c(c1C)C(c1ccc(Cl)cc1)=N[C@@H](CC(=O)NCCCN1CCN(C)CC1)c1nnc(C)n1-2 [RO6870810] | 20.5 | 38.5 | 
2 | CCS(=O)(=O)Nc1ccc(Oc2ccc(F)cc2F)c(-c2cn(C)c(=O)c3[nH]ccc23)c1 [mivebresib] |  |  | higher efficacy in the combination group
